Assay results as given in patent US20130085133A1, “ANTI-VIRAL TREATMENT AND ASSAY TO SCREENFOR ANTI-VIRAL AGENT” (Sourthern Research Institute Office of Commercialization …, priority 2010, published 2013).

How the values were obtained:
[1] = in vitro; settings: human
Protocol: Test compounds were evaluated by measuring their antiviral activity, cell toxicity, and selectivity. Test compounds were serially diluted in a plate to plate matrix or “stacked plate” matrix. All 320 compounds in a source plate were diluted together resulting in a 10 point dose response dilution series. It was visualized as a serial dilution series proceeding vertically through a stack of plates with the high dose plate on top and the low dose plate on the bottom.
Following the six day incubation period, the assay plates were equilibrated to room temperature for 30 min and an equal volume (30 μL) of Cell Titer-Glo reagent (Promega Inc.) was added to each well using a WellMate (Matrix, Hudson, N.H.) and plates were incubated for an additional 10 min at room temperature. At the end of the incubation, luminescence was measured using a Perkin Elmer Envision™ multi-label reader (PerkinElmer, Wellesley, Mass.) with an integration time of 0.1 s.
Data was analyzed using ActivityBase software (IDBS, Inc, Guilford, UK). thirty two control wells containing cells only and twenty four wells containing cells and virus were included on each assay plate and used to calculate Z′ value for each plate and to normalize the data on a per plate basis. […] Eight ribavirin positive control wells were included on each plate for quality control purposes, but were not used in Z′ calculations. […] In the toxicity assay, results are described as percent viability and the calculation is the same.
An EC50 (for CPE inhibition) and IC50 (for cell viability) were calculated for each substance using the 4 parameter Levenburg-Marquardt algorithm with parameter A locked at 0 and parameter B locked at 100. Standard deviation, normalized chi2 and hill slope were used to evaluate the curves. Values were not extrapolated beyond the tested range of concentrations.

[2] = tested on: respiratory syncytial virus (RSV) strain Long; assay: microbe, parasite or virus in culture; settings: human respiratory syncytial virus, HEp-2, 144 h

O=S(=O)(c1cc(Cl)c(O)c(Cl)c1)c1cc(Cl)c(O)c(Cl)c1 [AB00275543]
CC50 at 6 days [1]: > 25 µg/mL | EC50 [2]: 16.2 µg/mL

CNC(=S)NNC(=O)COc1ccccc1C [AB00370002]
CC50 [1]: > 25 µg/mL | EC50 [2]: 22 µg/mL

Cc1cccc(-n2c(Cc3cccc([N+](=O)[O-])c3)nc3ccccc3c2=O)c1 [AB00297463]
CC50 at 6 days [1]: > 25 µg/mL | EC50 [2]: 16.3 µg/mL

Nc1ccc2c(c1)Cc1ccccc1-2 [AB00374695]
CC50 [1]: > 50 µM | EC50 [2]: 46.8 µM

O=S(=O)(O)c1ccc2c(c1)C1=NC/2=N\c2c3cc(S(=O)(=O)O)ccc3c3[n]2[Cu][n]2/c(c4ccc(S(=O)(=O)O)cc4/c2=N/C2=NC(=N\3)/c3cc(S(=O)(=O)O)ccc32)=N\1 [AB00514356]
CC50 [1]: > 50 µM

COc1ccccc1/C=N/NC(=N)N[N+](=O)[O-] [SRI-101]
CC50 [1]: > 50 µM | EC50 [2]: 35.7 µM

N#CCCN1CCN(C(=S)c2ccc(-c3cccc(Cl)c3)o2)CC1 [AB00294368]
CC50 [1]: > 25 µg/mL | EC50 [2]: 15 µg/mL

O=Cc1cn(CC(=O)N2CCc3ccccc3C2)c2ccc(Br)cc12 [AB00302396]
CC50 [1]: > 25 µg/mL | EC50 [2]: 23.8 µg/mL

COc1c2ccoc2nc2c(OC)cccc12 [AB00276394]
CC50 [1]: > 25 µg/mL | EC50 [2]: 15.2 µg/mL

C=CCN1C(=O)C2(C(C#N)=C(N)Oc3ccccc32)C(C(C)=O)=C1C (stereo not drawn) [AB00364858]
CC50 at 6 days [1]: > 25 µg/mL | EC50 [2]: 21.2 µg/mL

O=c1c(F)cn(Cc2ccc([N+](=O)[O-])cc2)c(=O)n1Cc1ccc([N+](=O)[O-])cc1 [AB00373945]
CC50 [1]: > 50 µM | EC50 [2]: 13.3 µM
